Laboratory results published in patent US20190314197A1, “Topical Ocular Delivery Methods and Devices for Use in the Same” (Kedalion Therapeutics, Inc., priority 2018, published 2019).

How the values were obtained:
Type in all cases: in vivo, human
[1] = Trial 2: intraocular pressure reduction (Goldmann applanation tonometry) in primary open angle glaucoma patients; conditions: for average IOP decrease measured per patient: approximately 8 hours after dosing
Method: Trial 2 compared the efficacy (dose volume equivalence) of 0.005% w/v latanoprost for intraocular pressure reduction when delivered via AcuStream™ (pre-trial calibration volume=9.2 μl) versus the standard eye dropper for topical drug delivery (approximate volume=30 μl).
Patients included in Trial 2 have previously been diagnosed with primary open angle glaucoma on the basis of intraocular pressure and visual field testing, fundus examination or optical coherence tomography (OCT) data and are currently on prostaglandin analog medical therapy. Patients with corneal abnormalities that would interfere with accurate IOP measurements with applanation tonometry, use of an oral or topical ophthalmic steroids within the past 14 days from screening date, any active ocular surface or anterior segment disease, or progressive field loss during the past year were excluded from the study. Thirteen men and five women participated in the trial.
Recruited patients were taken off medical therapy for a period of 3-4 weeks prior to the study to allow drug “wash out”, thereby elevating their IOPs to pre-treatment levels which was confirmed by examination of the patients' chart history. Patients were randomly assigned as “test” (AcuStream™), or “control” (standard eye dropper). The mean age of the control group and test group were 61.0 years and 65.2 years, respectively.
The patients assigned to either the “test” or “control” group by means of a random numbers table in order to mitigate any potential cross-over effects that could confound data interpretation. An odd number dictated that the patient was in the test group, while even-numbered patients were in the control group.
After performing slit lamp examinations on each patient to verify eligibility and obtaining informed consent, intraocular pressure (IOP) was measured by a sole experienced examiner who was blind to the randomized conditions. A pre-calibrated Goldmann applanation tonometer coupled to a Haag-Streit 900 EQ slit lamp was used to conduct baseline IOP measurements. Once baseline IOP data were verified to be equivalent to pre-medical therapy levels (based on patient's treatment history), the patient then continued to the dosing stage of the study.
Latanoprost solution was administered by a sole ophthalmologist to both eyes of each patient, based on the pre-determined randomized condition.

[2] = Near visual acuity (Snellen card at 40 cm) after pilocarpine micro-dose (presbyopia); conditions: dosed eye
Method: (§1) A 10 μl micro-dose of a 1% pilocarpine solution was self-administered using an electromagnetic actuated fluid delivery device, e.g., as described above, by three subjects to their own eye. The age range of the subjects was 52 years to 68 years, and all subjects were male. The pilocarpine micro-dose was self-administered by the subjects.
(§2) Baseline, pre-dose values of pupil diameter and near visual acuity in both eyes prior to dosing was measured for all subjects, and then following the baseline measurements, the subjects were dosed in only one eye (the eye with the poorer visual acuity) with the micro-dose pilocarpine solution. Approximately 45 to 60 minutes after dosing, pupil diameter and near visual acuity were again tested. Near visual acuity was measured using a Snellen card at a distance of 40 cm. A tabulation of results is given below in Table A.

[3] = Pupil diameter after self-administered pilocarpine micro-dose (presbyopia); conditions: non-dosed fellow eye
Method: as §1, §2

Row | SMILES | average IOP decrease measured per patient ([1]; AcuStream (test group)) | difference in IOP reduction between AcuStream and standard dropper groups ([1]; Wilcoxon Ranked Sum test, p=0.3447) | post-instillation IOP, single patient outlier ([1]; control group (standard dropper), OD, baseline IOP 30 mm Hg) | equivalence of 9.2 μl AcuStream dose volume to 30 μl standard eye drops, intraocular pressure reduction ([1]; human, in vivo) | average IOP decrease measured per patient ([1]; standard eye dropper (control group)) | mean improvement in near visual acuity ([2]; all subjects) | # of lines change in visual acuity ([2]; mean of 3 subjects) | miotic effect in non-dosed eye [3]
1 | CC(C)OC(=O)CCC/C=C\C[C@@H]1[C@@H](CC[C@@H](O)CCc2ccccc2)[C@H](O)C[C@@H]1O [latanoprost] | 5.0 mm Hg | no statistically significant differences | 17 mm Hg | pharmacodynamic equivalence | 4.3 mm Hg |  |  | 
2 | CC[C@@H]1C(=O)OC[C@@H]1Cc1cncn1C [pilocarpine] |  |  |  |  |  | 2 lines | 2 lines | no miotic effect
